Measured values: ChEMBL document CHEMBL3425465, “Synthesis, antimalarial and antitubercular activities of meridianin derivatives” (Eur J Med Chem, 2015)
In brackets after ≈: the same amount, converted by molar mass.

Legend:
[1] = system: Mycobacterium tuberculosis; test: Antitubercular activity against Mycobacterium tuberculosis H37Rv assessed as […] inhibition after 7 days by broth microdilution assay; type: functional; conditions: 168 h
[2] = system: Plasmodium falciparum; test: Antiplasmodial activity against Plasmodium falciparum D6 infected in human RBC assessed as parasite growth inhibition measured as LDH activity after 72 hrs by plate reader analysis; type: functional, organism-based
[3] = Retention time of the compound by HPLC analysis; type: physicochemical
[4] = system: Plasmodium falciparum; test: Antiplasmodial activity against Plasmodium falciparum W2 infected in human RBC assessed as parasite growth inhibition measured as LDH activity after 72 hrs by plate reader analysis; type: functional, organism-based
[5] = system: LLC-PK1; test: Cytotoxicity against pig LLC-PK1 cells assessed as cell growth inhibition after 48 hrs by neutral red assay; type: cell-based; conditions: Sus scrofa, LLC-PK1, 48 h
[6] = Selectivity index, ratio of IC50 for pig LLC-PK1 cells to IC50 for Plasmodium falciparum W2
[7] = system: SK-MEL; test: Cytotoxicity against human SK-MEL cells assessed as cell growth inhibition after 48 hrs by neutral red assay; type: cell-based
[8] = Selectivity index, ratio of IC50 for African green monkey VERO cells to IC50 for Plasmodium falciparum W2
[9] = system: KB; test: Cytotoxicity against human KB cells assessed as cell growth inhibition after 48 hrs by neutral red assay; type: cell-based
[10] = system: BT-549; test: Cytotoxicity against human BT549 cells assessed as cell growth inhibition after 48 hrs by neutral red assay; type: cell-based; conditions: BT-549, 48 h
[11] = system: SK-OV-3; test: Cytotoxicity against human SKOV3 cells assessed as cell growth inhibition after 48 hrs by neutral red assay; type: cell-based; conditions: SK-OV-3, 48 h
[12] = system: Vero; test: Cytotoxicity against African green monkey Vero cells assessed as cell growth inhibition after 48 hrs by neutral red assay; type: cell-based; conditions: Chlorocebus sabaeus
[13] = Selectivity index, ratio of IC50 for African green monkey VERO cells to IC50 for Plasmodium falciparum D6
[14] = Selectivity index, ratio of IC50 for pig LLC-PK1 cells to IC50 for Plasmodium falciparum D6
[15] = Plasmodium falciparum, D6, 72 h, read-out: IC50
[16] = Plasmodium falciparum, D6, 72 h, read-out: pIC50 (converted)
[17] = Plasmodium falciparum, W2, 72 h, read-out: IC50
[18] = Plasmodium falciparum, W2, 72 h, read-out: pIC50 (converted)

Structure (SMILES): CN1CCN(C(=O)n2cc(-c3ccnc(N)n3)c3cc(Br)ccc32)CC1
- MIC90 [1]: 155 µM (≈ 64.2 µg/mL)

Structure (SMILES): Nc1nccc(-c2cn(C(=O)c3ccccc3)c3ccc(Br)cc23)n1
- MIC90 [1]: 163 µM (≈ 64 µg/mL)

Structure (SMILES): Cc1noc(C)c1Cn1cc(-c2ccnc(N)n2)c2ccccc21
- MIC90 [1]: 201 µM (≈ 64.1 µg/mL)

Structure (SMILES): Cc1noc(C)c1Cn1cc(-c2ccnc(N)n2)c2cc(Br)ccc21
- MIC90 [1]: 80.6 µM (≈ 32.1 µg/mL)

Structure (SMILES): Nc1nccc(-c2cn(Cc3ccc(Cl)s3)c3ccc(Br)cc23)n1
- MIC90 [1]: 76.6 µM (≈ 32.2 µg/mL)

Structure (SMILES): COCCn1cc(-c2ccnc(N)n2)c2cc(Br)ccc21
- MIC90 [1]: 92.2 µM (≈ 32 µg/mL)

Structure (SMILES): O=C1NC(c2c[nH]c3ccc(Br)cc23)Nc2ccccc21 (stereo unspecified)
- MIC90 [1]: 23.4 µM (≈ 8.01 µg/mL)

Structure (SMILES): COc1ccc(S(=O)(=O)n2cc(-c3ccnc(N)n3)c3ccccc32)cc1
- IC50 [2]: Not Active
- Retention_time [3]: 8.49 min
- IC50 [4]: Not Active

Structure (SMILES): COc1ccc(S(=O)(=O)n2cc(-c3ccnc(N)n3)c3cc(Br)ccc32)cc1
- IC50 [2]: Not Active
- Retention_time [3]: 8.08 min
- IC50 [4]: Not Active

Structure (SMILES): CC(C)(C)c1ccc(S(=O)(=O)n2cc(-c3ccnc(N)n3)c3ccccc32)cc1
- IC50 [2]: Not Active
- Retention_time [3]: 9.09 min
- IC50 [4]: Not Active

Structure (SMILES): CC(C)(C)c1ccc(S(=O)(=O)n2cc(-c3ccnc(N)n3)c3cc(Br)ccc32)cc1
- IC50 [2, 15]: 8.36 µM
- IC50 [2, 16]: 8.36 µM
- Retention_time [3]: 13.2 min
- IC50 [5]: > 51 µM
- Ratio IC50 [6]: >5.9
- IC50 [7]: > 51 µM
- Ratio IC50 [8]: >5.9
- IC50 [9]: > 51 µM
- IC50 [10]: > 51 µM
- IC50 [11]: > 51 µM
- IC50 [12]: > 51 µM
- Ratio IC50 [13]: >6.1
- Ratio IC50 [14]: >6.1
- IC50 [4, 17]: 8.74 µM
- IC50 [4, 18]: 8.75 µM

Structure (SMILES): Cc1cc(C)c(S(=O)(=O)n2cc(-c3ccnc(N)n3)c3ccccc32)c(C)c1
- IC50 [2]: Not Active
- Retention_time [3]: 8.95 min
- IC50 [4]: Not Active

Structure (SMILES): Cc1cc(C)c(S(=O)(=O)n2cc(-c3ccnc(N)n3)c3cc(Br)ccc32)c(C)c1
- IC50 [2, 15]: 8.12 µM
- IC50 [2, 16]: 8.13 µM
- Retention_time [3]: 10.66 min
- IC50 [5]: > 53 µM
- Ratio IC50 [6]: >6.3
- IC50 [7]: > 53 µM
- Ratio IC50 [8]: >6.3
- IC50 [9]: > 53 µM
- IC50 [10]: > 53 µM
- IC50 [11]: > 53 µM
- IC50 [12]: > 53 µM
- Ratio IC50 [13]: >6.5
- Ratio IC50 [14]: >6.5
- IC50 [4, 17]: 8.36 µM
- IC50 [4, 18]: 8.36 µM

Structure (SMILES): Cc1c(C)c(C)c(S(=O)(=O)n2cc(-c3ccnc(N)n3)c3ccccc32)c(C)c1C
- Retention_time [3]: 10 min

Structure (SMILES): Cc1c(C)c(C)c(S(=O)(=O)n2cc(-c3ccnc(N)n3)c3cc(Br)ccc32)c(C)c1C
- Retention_time [3]: 13.88 min

Structure (SMILES): Nc1nccc(-c2cn(S(=O)(=O)c3ccc([N+](=O)[O-])cc3)c3ccccc23)n1
- Retention_time [3]: 7.43 min

Structure (SMILES): Nc1nccc(-c2cn(S(=O)(=O)c3ccc([N+](=O)[O-])cc3)c3ccc(Br)cc23)n1
- IC50 [2, 15]: 4.86 µM
- IC50 [2, 16]: 4.86 µM
- Retention_time [3]: 7.78 min
- IC50 [5]: > 52 µM
- Ratio IC50 [6]: >8.2
- IC50 [7]: > 52 µM
- Ratio IC50 [8]: >8.2
- IC50 [9]: > 52 µM
- IC50 [10]: > 52 µM
- IC50 [11]: > 52 µM
- IC50 [12]: > 52 µM
- Ratio IC50 [13]: >10.8
- Ratio IC50 [14]: >10.8
- IC50 [4, 17]: 6.39 µM
- IC50 [4, 18]: 6.38 µM

Structure (SMILES): N#Cc1ccc(S(=O)(=O)n2cc(-c3ccnc(N)n3)c3ccccc32)cc1
- IC50 [2, 15]: 11 µM
- IC50 [2, 16]: 11 µM
- Retention_time [3]: 7.02 min
- IC50 [5]: > 66 µM
- Ratio IC50 [6]: >7.4
- IC50 [7]: > 66 µM
- Ratio IC50 [8]: >7.4
- IC50 [9]: > 66 µM
- IC50 [10]: > 66 µM
- IC50 [11]: > 66 µM
- IC50 [12]: > 66 µM
- Ratio IC50 [13]: >6
- Ratio IC50 [14]: >6
- IC50 [4, 17]: 8.98 µM
- IC50 [4, 18]: 8.97 µM

Structure (SMILES): Nc1nccc(-c2cn(S(=O)(=O)c3cccc(C(F)(F)F)c3)c3ccccc23)n1
- IC50 [2]: Not Active
- Retention_time [3]: 8.34 min
- IC50 [4]: Not Active
- MIC90 [1]: 153 µM (≈ 64.1 µg/mL)

Structure (SMILES): Nc1nccc(-c2cn(S(=O)(=O)c3cccc(C(F)(F)F)c3)c3ccc(Br)cc23)n1
- IC50 [2, 15]: 9.3 µM
- IC50 [2, 16]: 9.29 µM
- Retention_time [3]: 8.61 min
- IC50 [5]: > 50 µM
- Ratio IC50 [6]: >9.4
- IC50 [7]: > 50 µM
- Ratio IC50 [8]: >9.4
- IC50 [9]: > 50 µM
- IC50 [10]: > 50 µM
- IC50 [11]: > 50 µM
- IC50 [12]: > 50 µM
- Ratio IC50 [13]: >5.4
- Ratio IC50 [14]: >5.4
- IC50 [4, 17]: 5.34 µM
- IC50 [4, 18]: 5.35 µM
